Measurements reported in publication PMC3695357, “Identification of Novel IGF1R Kinase Inhibitors by Molecular Modeling and High-Throughput Screening” (Acta Naturae, 2013).

Key:
Type in all cases: biochemical
[1] = target: T1, IGF1R kinase (Homo sapiens, UniProt P08069); assay: IGF1R ADP-Glo kinase assay, dose-response; conditions: for IC50: ADP-Glo, 8-point curves from 100 μM, 50 μM ATP; for selectivity for IGF1R versus InsR: from IC50 values of Table 1
T1 construct: This assay utilizes a recombinant intracellular kinase domain fragment of IGF1R; purchased Promega Corp
Protocol: (§1) Multi-well liquid dispensing for setting up assays was performed using either the robotic liquid handler PlateMate Plus or the manual electronic multichannel micropipettes Matrix Impact (Thermo Scientific, Hudson, NH, USA). High-throughput Screening (HTS), kinase selectivity, and dose-response (IC50) assays were read in the luminescence mode using the PolarStar Omega reader (BMG Labtech, Ortenberg, Germany) or M5 reader (Molecular Devices Corp., Sunnyvale, CA). IGF1R ADP-Glo data in relative luminescence units (RLU) were collected from the plate readers, and the percentage of activity (% Activity) was determined for each point as follows: % Activity = 100*(RLU sample – RLU no kinase control avg)/(RLU kinase control avg – RLU no kinase control avg). The screening data were processed and visualized using Microsoft Excel templates designed to calculate the inhibition values, the Z’-factor, and GraphPad Prism 5 (GraphPad Software, Inc., La Jolla, CA) for IC50 analysis. The doseresponse curves of Percent Activity were fit in Prism, using a sigmoidal variable slope fit with the maximum % activity and the minimum % activity fixed at 100% and 0%, respectively. The Z′ factor, a statistical measure of variability and reproducibility for HTS assays, was determined using the following formula: Z′ = 1-[3 × (SDsample+SDcontol)/|Msample-Mcontrol|] [12], where SD denotes the standard deviation and M denotes the mean for the samples and controls, respectively. Prior to starting HTS, assay conditions were optimized and validated with regard to the maximum ATP turnover (never exceeding 20%), an acceptable signal-to-background ratio (“assay window”) of at least 6, an acceptable Z’-factor of at least 0.6, as well as day-to-day and plate-to-plate reproducibility of the screening data. All primary screening was performed at 20 μM compound concentrations, and some of the weak hits were subsequently re-tested at higher concentrations (40 or 80 μM) for confirmation. Statistically significant HTS hits in the primary screening were defined as those that produced a kinase activity signal at least three standard deviations lower than the mean of the assay plate run (not including the plate controls). Lineweaver- Burk plots were created in Excel or Prism using the standard algorithms. All assay development and validation and high-throughput screening procedures were carried out according to the general guidelines as published on the U.S. National Chemical Genomics Center web site (NC GC Assay Guidance Manual and High-throughput Assay Guidance Criteria, http://www.ncbi.nlm.nih.gov/books/NBK53196/).
IGF1R high throughput screening (HTS) assays using the IGF1R Kinase System and ADP-Glo readout system (Promega Corp.) were performed in a final volume of 7 μL per test compound using a 384-well small volume microplate format. All liquid dispensing was done using the PlateMate Plus robotic liquid handler. 3 μL aliquots of the enzyme/substrate mixture containing 1 μg of the IGF1Rtide peptide substrate and 4 ng of recombinant IGF1R kinase in a 0.66× assay buffer were transferred to the plate wells. The assay buffer (1×) consisted of 40 mM Tris chloride, 20 mM magnesium chloride, 0,1 mg/ml bovine serum albumin, 2 mM manganese chloride, and 250 μM dithiothreitol (DTT ). To add the tested compounds to the reaction, starting stocks of 10 mM compounds in dimethyl sulfoxide (DMSO) were diluted with DMSO to 2 mM. Next, 3 μL aliquots of 2 mM compound stock solutions in DMSO were transferred to 83 μL volumes of a 1× reaction buffer and thoroughly mixed. Aqueous compound solution aliquots of 2 μL were then transferred into the assay plate to get a final concentration of each compound of 20 μM in 1% DMSO. The plates were pre-incubated at 27°C for 10 min with gentle shaking (300 rpm). The assay was started by adding 2 μL of the ATP stock solution to the reaction mixture to achieve a final ATP concentration of 50 μM. […]

[2] = target: T2, InsR kinase (Homo sapiens, UniProt P06213); assay: InsR ADP-Glo kinase assay, dose-response; conditions: for IC50: ADP-Glo, 8-point curves from 100 μM; for stronger inhibition of InsR versus IGF1R: from IC50 values of Table 1
T2 construct: the amount of recombinant insulin receptor kinase was 2 ng per well
Protocol: (§2) Kinase selectivity assays with InsR (dose-response measurements) and Met, Syk and BTK kinases (single point compound concentrations) using the ADP-Glo readout system were run under optimized experimental conditions similar to the IGF1R assay with regard to the kinetic parameters of kinase reactions.
Dose-response and IC50 measurements for the confirmed screening hits were conducted for IGF1R and InsR kinases. The conditions were similar to the HTS conditions described above, except that the compounds were plated in 8-point curves serially diluted 1:2 from 100 μM top concentrations and with a 1% final DMSO throughout, in quadruplicates for each compound dilution point. The time of incubation of kinase reaction mixtures was 2.5 or 4.5 hours at 27°C in different experiments both for the insulin kinase receptor and IGF1R, the dithiotreitol (DTT ) concentration was 500 μM, and the amount of recombinant insulin receptor kinase was 2 ng per well. DTT concentration was elevated to enhance the stability of the enzymes during 4.5 h incubation experiments. Compounds were typically serially 2-fold diluted in pure DMSO starting from 10 mM down to 19.5 μM to produce the final concentrations ranging from […] in a 1% DMSO-aqueous reaction buffer.

[3] = target: Met kinase (Homo sapiens, UniProt P08581); assay: Met ADP-Glo kinase selectivity assay, single concentration; conditions: remaining kinase activity at 40 μM compound, 50 μM ATP
Protocol: as §2
(§3) The amounts of the Met, Syk, and BTK enzymes and the incubation time were optimized to ensure an ATP conversion not higher than 20% in all cases. The typical assay window (signal/background) was 3–5 for all kinases. The final volumes of the Met, Syk, and BTK kinase assay reaction mixtures were 5 μL. Two μL of the enzyme solution in a 1× reaction buffer (6 ng Met, 8 ng BTK, 4 ng Syk), 1 μL of the compound solution in a 2× reaction buffer, the ATP and substrate mixture in a 0.5× reaction mixture were added sequentially. The composition of the 1× reaction buffer was 40 mM Tris, 20 mM magnesium chloride, 0.1 mg/ml bovine serum albumin, 500 μM DTT at pH 7.5 with 1% final concentration of the DMSO, 50 μM ATP, and 0.2 mg/ml Poly(Glu4, Tyr1) substrates. The buffer was supplemented with 2 mM manganese (II) chloride in the case of BTK kinase. Compounds were tested at 40 μM concentrations. In each experiment, 6 wells with the enzyme, but no added compounds, were used as negative inhibition controls; 6 wells without tested compounds and the enzyme and 6 wells with the enzyme and 0.5–1 μM staurosporine were used as positive inhibition controls. Pre-incubation of the reaction mixture with compounds prior to ATP addition was performed for 20 min at 25°C in all experiments. The incubation of the reaction mixture lasted for 25 min at 37°C. All compounds were tested in 4 to 6 repeats. Conditions of ADP detection were as follows: 40 min incubation with an ADP-Glo reagent, followed by 30 min with a detection reagent at 25°C. Luminescence was read using a BMG Polarstar Omega reader at a gain setting of 4095 and measurement time of 0.5 s.

[4] = target: Syk kinase (Homo sapiens, UniProt P43405); assay: Syk ADP-Glo kinase selectivity assay, single concentration; conditions: remaining kinase activity at 40 μM compound, 50 μM ATP
Protocol: as §2, §3

[5] = target: BTK kinase (Homo sapiens, UniProt Q06187); assay: BTK ADP-Glo kinase selectivity assay, single concentration; conditions: remaining kinase activity at 40 μM compound, 50 μM ATP
Protocol: as §2, §3

[6] = target: T1, IGF1R kinase; assay: Michaelis-Menten kinetics / Lineweaver-Burk competition analysis; conditions: Lineweaver-Burk plot; for inhibition mechanism with regard to ATP: IGF1Rtide 143 μg/ml, ATP titrated; for inhibition mechanism with regard to the substrate: poly(Glu4,Tyr1) titrated, ATP 250 μM
Protocol: as §1
Serial dilutions of ATP and substrate polypeptide poly(Glu4,Tyr1) were tested in IGF1R kinase assays with the inhibitors L1 and T4 to produce the kinetic data for Lineweaver-Burk plots. […]

Sequence of BTK kinase (Q06187 whole entry): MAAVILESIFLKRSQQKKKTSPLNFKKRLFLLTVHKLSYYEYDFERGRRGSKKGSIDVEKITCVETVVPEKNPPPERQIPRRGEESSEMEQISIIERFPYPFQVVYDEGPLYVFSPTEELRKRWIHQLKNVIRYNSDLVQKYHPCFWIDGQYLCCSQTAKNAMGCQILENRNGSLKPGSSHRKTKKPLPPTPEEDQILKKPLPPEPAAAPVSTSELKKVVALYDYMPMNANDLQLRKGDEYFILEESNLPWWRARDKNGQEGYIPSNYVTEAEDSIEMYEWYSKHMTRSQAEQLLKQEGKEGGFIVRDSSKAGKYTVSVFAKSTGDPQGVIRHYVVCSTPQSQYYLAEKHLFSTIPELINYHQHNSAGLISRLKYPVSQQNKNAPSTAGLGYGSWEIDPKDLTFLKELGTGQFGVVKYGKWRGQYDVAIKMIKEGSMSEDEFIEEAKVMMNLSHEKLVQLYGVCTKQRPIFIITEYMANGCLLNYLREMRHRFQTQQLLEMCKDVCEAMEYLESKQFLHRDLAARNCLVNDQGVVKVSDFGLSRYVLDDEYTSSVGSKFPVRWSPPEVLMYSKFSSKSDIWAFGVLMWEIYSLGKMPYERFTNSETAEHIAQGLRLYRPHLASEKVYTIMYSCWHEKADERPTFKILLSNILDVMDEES
Sequence of Met kinase (P08581 25-1390): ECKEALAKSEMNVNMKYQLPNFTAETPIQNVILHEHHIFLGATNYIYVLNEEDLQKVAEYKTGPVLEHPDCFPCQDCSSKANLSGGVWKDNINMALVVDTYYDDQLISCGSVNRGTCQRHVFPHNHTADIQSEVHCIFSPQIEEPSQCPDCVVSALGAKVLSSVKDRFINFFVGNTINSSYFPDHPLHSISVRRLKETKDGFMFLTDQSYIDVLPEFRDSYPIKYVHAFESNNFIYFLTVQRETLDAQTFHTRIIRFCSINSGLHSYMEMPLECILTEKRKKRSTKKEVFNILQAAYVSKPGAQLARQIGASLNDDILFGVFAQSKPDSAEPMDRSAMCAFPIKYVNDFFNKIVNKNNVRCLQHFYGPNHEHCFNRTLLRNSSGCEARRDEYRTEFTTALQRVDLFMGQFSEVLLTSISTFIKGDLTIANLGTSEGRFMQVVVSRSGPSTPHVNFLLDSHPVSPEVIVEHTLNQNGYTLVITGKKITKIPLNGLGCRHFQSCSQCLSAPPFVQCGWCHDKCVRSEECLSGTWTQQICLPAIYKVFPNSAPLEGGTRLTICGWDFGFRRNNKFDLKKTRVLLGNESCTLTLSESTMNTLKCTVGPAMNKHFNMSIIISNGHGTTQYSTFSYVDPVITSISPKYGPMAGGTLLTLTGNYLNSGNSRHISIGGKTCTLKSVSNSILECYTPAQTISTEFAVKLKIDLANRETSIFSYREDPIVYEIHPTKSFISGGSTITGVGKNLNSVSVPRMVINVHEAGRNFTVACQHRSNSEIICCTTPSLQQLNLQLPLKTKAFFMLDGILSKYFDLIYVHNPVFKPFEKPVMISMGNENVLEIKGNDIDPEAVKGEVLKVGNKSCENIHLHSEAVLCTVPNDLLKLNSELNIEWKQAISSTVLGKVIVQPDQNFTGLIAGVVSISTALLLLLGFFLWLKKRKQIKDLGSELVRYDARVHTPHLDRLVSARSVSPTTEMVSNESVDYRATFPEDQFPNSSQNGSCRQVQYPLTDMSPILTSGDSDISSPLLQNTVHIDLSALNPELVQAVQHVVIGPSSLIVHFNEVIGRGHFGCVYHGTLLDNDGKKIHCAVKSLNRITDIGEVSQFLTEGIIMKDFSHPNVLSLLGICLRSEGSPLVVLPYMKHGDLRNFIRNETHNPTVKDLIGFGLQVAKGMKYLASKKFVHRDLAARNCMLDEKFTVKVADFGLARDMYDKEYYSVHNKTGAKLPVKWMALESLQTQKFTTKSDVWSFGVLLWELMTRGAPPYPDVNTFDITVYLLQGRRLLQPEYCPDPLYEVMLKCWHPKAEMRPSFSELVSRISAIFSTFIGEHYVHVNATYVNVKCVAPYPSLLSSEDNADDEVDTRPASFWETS
T1 sequence (P08069 999-1274 limits assumed): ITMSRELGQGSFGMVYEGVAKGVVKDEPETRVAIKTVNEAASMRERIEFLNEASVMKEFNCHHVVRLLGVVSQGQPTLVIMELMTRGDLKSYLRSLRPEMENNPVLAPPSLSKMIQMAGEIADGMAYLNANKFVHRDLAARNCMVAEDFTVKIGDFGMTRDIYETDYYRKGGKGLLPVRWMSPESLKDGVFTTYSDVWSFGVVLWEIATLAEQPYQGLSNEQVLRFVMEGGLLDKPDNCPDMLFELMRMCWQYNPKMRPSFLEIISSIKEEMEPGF
T2 sequence (P06213 28-1382): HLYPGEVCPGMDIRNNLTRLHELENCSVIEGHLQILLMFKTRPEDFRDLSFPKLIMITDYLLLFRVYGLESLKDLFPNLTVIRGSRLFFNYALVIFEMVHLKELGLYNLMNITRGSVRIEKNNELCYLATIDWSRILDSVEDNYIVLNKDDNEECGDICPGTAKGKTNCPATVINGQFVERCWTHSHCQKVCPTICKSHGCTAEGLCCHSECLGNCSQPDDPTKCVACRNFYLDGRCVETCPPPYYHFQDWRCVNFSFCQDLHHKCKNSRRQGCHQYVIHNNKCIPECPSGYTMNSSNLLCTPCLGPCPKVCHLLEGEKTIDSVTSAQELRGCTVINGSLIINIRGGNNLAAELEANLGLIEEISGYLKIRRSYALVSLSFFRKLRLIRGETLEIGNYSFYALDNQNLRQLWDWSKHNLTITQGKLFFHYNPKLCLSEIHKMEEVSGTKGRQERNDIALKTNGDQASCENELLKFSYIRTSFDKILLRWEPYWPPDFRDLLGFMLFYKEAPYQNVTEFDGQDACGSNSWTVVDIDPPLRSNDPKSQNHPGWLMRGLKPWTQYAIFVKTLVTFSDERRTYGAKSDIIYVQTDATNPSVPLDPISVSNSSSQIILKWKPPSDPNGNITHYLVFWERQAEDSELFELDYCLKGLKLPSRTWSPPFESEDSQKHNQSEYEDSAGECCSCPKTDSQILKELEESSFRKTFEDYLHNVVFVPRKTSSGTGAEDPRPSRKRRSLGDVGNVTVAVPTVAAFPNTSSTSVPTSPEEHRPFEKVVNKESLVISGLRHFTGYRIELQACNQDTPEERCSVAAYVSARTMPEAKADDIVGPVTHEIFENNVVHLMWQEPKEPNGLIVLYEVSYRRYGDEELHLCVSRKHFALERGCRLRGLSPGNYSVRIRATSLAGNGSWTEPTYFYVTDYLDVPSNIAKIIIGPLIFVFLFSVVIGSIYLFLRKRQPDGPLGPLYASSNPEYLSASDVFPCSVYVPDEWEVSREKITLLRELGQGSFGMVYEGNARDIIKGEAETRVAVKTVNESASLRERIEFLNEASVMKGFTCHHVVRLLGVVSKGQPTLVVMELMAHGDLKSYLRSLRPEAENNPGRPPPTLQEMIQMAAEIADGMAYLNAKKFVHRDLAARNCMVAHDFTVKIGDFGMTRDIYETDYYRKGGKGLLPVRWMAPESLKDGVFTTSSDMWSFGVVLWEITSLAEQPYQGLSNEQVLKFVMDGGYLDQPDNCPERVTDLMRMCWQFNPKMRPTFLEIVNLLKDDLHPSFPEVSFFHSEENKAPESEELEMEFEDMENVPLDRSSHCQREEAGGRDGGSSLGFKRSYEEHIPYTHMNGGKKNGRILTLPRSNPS

| SMILES | IC50 [1] | selectivity for IGF1R versus InsR [1] | IC50 [2] | Activity Met, % [3] | Activity Syk, % [4] | Activity Btk, % [5] | inhibition mechanism with regard to ATP [6] | inhibition mechanism with regard to the substrate [6] | stronger inhibition of InsR versus IGF1R [2] |
| --- | --- | --- | --- | --- | --- | --- | --- | --- | --- |
| O=C(Nc1ccc2c(c1)OCCO2)c1ccc2c(c1)OCCO2 [Compound L1] | 18 µM | essentially nonselective | 22 µM | 102% | 109% | 98% | non-competitive inhibition | non-competitive inhibition |  |
| O=C(Nc1ccc2c(c1)OCO2)c1ccc2c(c1)OCCO2 [Compound L2] | 25 µM |  | 100 µM | 63% | 48% | 106% |  |  |  |
| COc1ccc(NC(=O)c2ccc3c(c2)OCCO3)cc1 [Compound L3] | 26 µM | essentially nonselective | 29 µM | 77% | 88% | 106% |  |  |  |
| O=C(Nc1ccc2nccnc2c1)c1ccc2c(c1)OCCO2 [Compound L4] | 25 µM | essentially nonselective | 30 µM | 60% | 53% | 113% |  |  |  |
| NS(=O)(=O)c1ccc(NNC(=O)c2ccc(NS(=O)(=O)c3cccs3)cc2)c([N+](=O)[O-])c1 [Compound T1] | ~100 µM |  | 20 µM | 78% | 84% | 92% |  |  | 5-10 fold |
| COc1cc(CNC(=O)c2ccc[nH]c2=S)ccc1OCc1ccncc1 [Compound T2] | 18 µM |  | 30 µM | 62% | 72% | 83% |  |  |  |
| CCOc1ccc(NS(=O)(=O)c2ccc3[nH]c(=O)cc(C(=O)Nc4ccn(C)n4)c3c2)cc1 [Compound T3] | ~100 µM |  | 10 µM | 98% | 115% | 81% |  |  | 5-10 fold |
| O=C(NCc1ccc(Cn2ccnc2)cc1)c1ccc[nH]c1=S [Compound T4] | 7 µM |  | 10 µM | 75% | 115% | 82% | non-competitive inhibition | non-competitive inhibition |  |
